Laboratory results as given in patent US7695930B2, “Method for the detection, identification and/or quantification of microoganisms with peptidase activity using phenoxazinone derivatives as enzyme substrates” (Biomerieux, priority 2003, dated 2010).

Assays:
Type in all cases: cell-based
Conditions in all cases: 50 mg/l
[1] = system: Staphylococcus aureus; assay: Alanyl-peptidase detection on agar medium (Example 13)
Procedure: (§1) The detection media were prepared by mixing 3.6 g of biogelytone (bioMérieux), 2.16 g of meat extract (bioMérieux), 1.26 g of malt extract (bioMérieux), 5.76 g of NaCl (Merck) and 10.8 g of agar (bioMérieux).
(§2) 720 ml of osmosed water were added to the powder, and the mixture was then melted in a waterbath at […]. The product was separated into two flasks, each of 360 ml. Autoclaving was carried out at 121° C. for 15 min and the product was cooled to […]. in a waterbath.
(§3) L-Alanyl-7-amino-4-methylcoumarin (Ala-AMC, Bachem) was then added to the first flask as a control, at the final concentration of 50 mg/l, and L-alanyl-9-aminobenzo[a]phenoxazin-5-one (Ala-ABP, substrate of the invention obtained in Example 2, in which the amino acid is L-alanine), was then added to the second flask at the final concentration of 25 mg/l.
(§4) The size of the colonies, their coloration and also the intensity of this coloration were noted.

[2] = system: Acinetobacter baumanii; assay: as above
Procedure: as §1, §2, §3, §4

[3] = system: Bacillus subtilis; assay: as above
Procedure: as §1, §2, §3, §4

[4] = system: Serratia liquefaciens; assay: as above
Procedure: as §1, §2, §3, §4

[5] = system: Escherichia coli; assay: as above
Procedure: as §1, §2, §3, §4

[6] = system: Enterococcus faecium; assay: as above
Procedure: as §1, §2, §3, §4

[7] = system: Edwardsiella tarda; assay: as above
Procedure: as §1, §2, §3, §4

[8] = system: Streptococcus pyogenes; assay: as above
Procedure: as §1, §2, §3, §4

[9] = system: Streptococcus agalactiae; assay: as above
Procedure: as §1, §2, §3, §4

[10] = system: Serratia marcescens; assay: as above
Procedure: as §1, §2, §3, §4

[11] = system: Hafnia alvei; assay: as above
Procedure: as §1, §2, §3, §4

[12] = system: Staphylococcus epidermidis; assay: as above
Procedure: as §1, §2, §3, §4

[13] = system: Enterobacter cloacae; assay: as above
Procedure: as §1, §2, §3, §4

[14] = system: Proteus mirabilis; assay: as above
Procedure: as §1, §2, §3, §4

[15] = system: Salmonella typhimurium; assay: as above
Procedure: as §1, §2, §3, §4

[16] = system: Candida krusei; assay: as above
Procedure: as §1, §2, §3, §4

[17] = system: Staphylococcus saprophyticus; assay: as above
Procedure: as §1, §2, §3, §4

[18] = system: Candida glabrata; assay: as above
Procedure: as §1, §2, §3, §4

[19] = system: Enterococcus faecalis; assay: as above
Procedure: as §1, §2, §3, §4

[20] = system: Pseudomonas aeruginosa; assay: as above
Procedure: as §1, §2, §3, §4

[21] = system: Corynebacterium Pseudodiphteriticum; assay: as above
Procedure: as §1, §2, §3, §4

[22] = system: Listeria innocua; assay: as above
Procedure: as §1, §2, §3, §4

[23] = system: Saccharomyces cerevisiae; assay: as above
Procedure: as §1, §2, §3, §4

[24] = system: Candida albicans; assay: as above
Procedure: as §1, §2, §3, §4

[25] = system: Klebsiella pneumoniae; assay: as above
Procedure: as §1, §2, §3, §4

[26] = system: Trichosporon beigelii; assay: Prolyl-peptidase detection on agar medium (Example 12); on color of the colony: key: B corresponds to fluorescent blue; R corresponds to pink
Procedure: (§5) The detection media were prepared by mixing 1.68 g of yeast extract (bioMérieux), 1.4 g of biocase (bioMérieux), 1.26 g of malt extract (bioMérieux), 0.08 g of glucose (Merck) and 3.92 g of agar (bioMérieux).
(§6) 280 ml of osmosed water were added to the powder, and the mixture was then melted in a waterbath at 100° C. The product was separated into two flasks, each of 140 ml. Autoclaving was carried out at 121° C. for 15 min and the product was cooled to 50° C. in a waterbath.
(§7) L-Prolyl-7-amino-4-methylcoumarin (Pro-AMC, Bachem) was then added to the first flask as a control and L-prolyl-9-aminobenzo[a]phenoxazin-5-one (Pro-ABP, substrate of the invention obtained in Example 2, in which the amino acid is L-Proline) was then added to the second flask at the final concentration of 50 mg/l.
as §4

[27] = system: Escherichia coli; assay: as above
Procedure: as §5, §6, §7, §4

[28] = system: Candida guilliermondii; assay: as above; on color of the colony: key: B corresponds to fluorescent blue; R corresponds to pink
Procedure: as §5, §6, §7, §4

[29] = system: Candida glabrata; assay: as above
Procedure: as §5, §6, §7, §4

[30] = system: Enterococcus faecalis; assay: as above
Procedure: as §5, §6, §7, §4

[31] = system: Saccharomyces cerevisiae; assay: as above
Procedure: as §5, §6, §7, §4

[32] = system: Candida albicans; assay: as above
Procedure: as §5, §6, §7, §4

[33] = system: Candida tropicalis; assay: as above
Procedure: as §5, §6, §7, §4

[34] = system: Klebsiella pneumoniae; assay: as above
Procedure: as §5, §6, §7, §4
Wherever color of the colony is given: key: B corresponds to fluorescent blue; R corresponds to pink.

Cc1cc(=O)oc2cc(NC(=O)[C@H](C)N)ccc12 [Ala-AMC, L-Alanyl-7-amino-4-methylcoumarin, reference compound]
growth diameter ([1]; 24 h): 0.5 mm
growth diameter ([1]; 48 h): 0.7 mm
growth diameter ([2]; 24 h): 1.5 mm
intensity of coloration, scale 0 to 4 ([2]; 24 h): 3
growth diameter ([2]; 48 h): 1.5 mm
intensity of coloration, scale 0 to 4 ([2]; 48 h): 3
growth diameter ([3]; 24 h): 1.7 mm
growth diameter ([3]; 48 h): 1.8 mm
growth diameter ([4]; 24 h): 0.7 mm
intensity of coloration, scale 0 to 4 ([4]; 24 h): 3
growth diameter ([4]; 48 h): 1.3 mm
intensity of coloration, scale 0 to 4 ([4]; 48 h): 3
growth diameter ([5]; 24 h): 1.7 mm
intensity of coloration, scale 0 to 4 ([5]; 24 h): 3
growth diameter ([5]; 48 h): 1.7 mm
intensity of coloration, scale 0 to 4 ([5]; 48 h): 3
growth diameter ([6]; 24 h): 0.2 mm
growth diameter ([6]; 48 h): 0.3 mm
intensity of coloration, scale 0 to 4 ([6]; 48 h): 0.25
growth diameter ([7]; 24 h): 0.4 mm
intensity of coloration, scale 0 to 4 ([7]; 24 h): 3
growth diameter ([7]; 48 h): 0.5 mm
intensity of coloration, scale 0 to 4 ([7]; 48 h): 3
growth diameter ([8]; 24 h): 0.1 mm
growth diameter ([8]; 48 h): 0.2 mm
intensity of coloration, scale 0 to 4 ([8]; 48 h): 3
growth diameter ([9]; 24 h): 0.1 mm
growth diameter ([9]; 48 h): 0.2 mm
growth diameter ([10]; 24 h): 0.5 mm
intensity of coloration, scale 0 to 4 ([10]; 24 h): 3
growth diameter ([10]; 48 h): 0.7 mm
intensity of coloration, scale 0 to 4 ([10]; 48 h): 3
growth diameter ([11]; 24 h): 0.7 mm
intensity of coloration, scale 0 to 4 ([11]; 24 h): 3
growth diameter ([11]; 48 h): 0.7 mm
intensity of coloration, scale 0 to 4 ([11]; 48 h): 3
growth diameter ([12]; 24 h): 0.3 mm
growth diameter ([12]; 48 h): 0.4 mm
growth diameter ([13]; 24 h): 0.5 mm
intensity of coloration, scale 0 to 4 ([13]; 24 h): 3
growth diameter ([13]; 48 h): 0.8 mm
intensity of coloration, scale 0 to 4 ([13]; 48 h): 3
growth diameter ([14]; 24 h): 0.7 mm
intensity of coloration, scale 0 to 4 ([14]; 24 h): 3
growth diameter ([14]; 48 h): 0.7 mm
intensity of coloration, scale 0 to 4 ([14]; 48 h): 3
growth diameter ([15]; 24 h): 1.3 mm
intensity of coloration, scale 0 to 4 ([15]; 24 h): 3
growth diameter ([15]; 48 h): 1.5 mm
intensity of coloration, scale 0 to 4 ([15]; 48 h): 3
growth diameter ([16]; 24 h): 0.7 mm
growth diameter ([16]; 48 h): 1.5 mm
intensity of coloration, scale 0 to 4 ([16]; 48 h): 0.25
growth diameter ([17]; 24 h): 0.3 mm
growth diameter ([17]; 48 h): 0.4 mm
growth diameter ([18]; 24 h): 0.2 mm
growth diameter ([18]; 48 h): 0.3 mm
growth diameter ([19]; 24 h): 0.3 mm
growth diameter ([19]; 48 h): 0.4 mm
growth diameter ([20]; 24 h): 0.3 mm
growth diameter ([20]; 48 h): 0.5 mm
intensity of coloration, scale 0 to 4 ([20]; 48 h): 2
growth diameter ([21]; 24 h): 0 mm
growth diameter ([21]; 48 h): 0.4 mm
intensity of coloration, scale 0 to 4 ([21]; 48 h): 2
growth diameter ([22]; 24 h): 0.2 mm
growth diameter ([22]; 48 h): 0.3 mm
growth diameter ([23]; 24 h): 0.1 mm
growth diameter ([23]; 48 h): 0.2 mm
growth diameter ([24]; 24 h): 0.3 mm
growth diameter ([24]; 48 h): 0.5 mm
intensity of coloration, scale 0 to 4 ([24]; 48 h): 2
growth diameter ([25]; 24 h): 1.2 mm
intensity of coloration, scale 0 to 4 ([25]; 24 h): 3
growth diameter ([25]; 48 h): 1.8 mm
intensity of coloration, scale 0 to 4 ([25]; 48 h): 3

Cc1cc(=O)oc2cc(NC(=O)[C@@H]3CCCN3)ccc12 [Pro-AMC, L-Prolyl-7-amino-4-methylcoumarin, reference compound]
growth diameter ([26]; 24 h): 0.7 mm
intensity of coloration, scale 0 to 4 ([26]; 24 h): 0.25
growth diameter ([26]; 48 h): 3 mm
intensity of coloration, scale 0 to 4 ([26]; 48 h): 2
growth diameter ([27]; 24 h): 3 mm
intensity of coloration, scale 0 to 4 ([27]; 24 h): 0.5
growth diameter ([27]; 48 h): 3 mm
intensity of coloration, scale 0 to 4 ([27]; 48 h): 0.5
growth diameter ([28]; 24 h): 0.4 mm
growth diameter ([28]; 48 h): 1.8 mm
intensity of coloration, scale 0 to 4 ([28]; 48 h): 3
growth diameter ([29]; 24 h): 0.3 mm
growth diameter ([29]; 48 h): 1.7 mm
growth diameter ([30]; 24 h): 0.8 mm
growth diameter ([30]; 48 h): 1.2 mm
growth diameter ([31]; 24 h): 0.3 mm
growth diameter ([31]; 48 h): 1.7 mm
growth diameter ([32]; 24 h): 1.2 mm
intensity of coloration, scale 0 to 4 ([32]; 24 h): 2
growth diameter ([32]; 48 h): 2.5 mm
intensity of coloration, scale 0 to 4 ([32]; 48 h): 3
growth diameter ([33]; 24 h): 1.2 mm
growth diameter ([33]; 48 h): 2 mm
growth diameter ([34]; 24 h): 2.5 mm
intensity of coloration, scale 0 to 4 ([34]; 24 h): 0.25
growth diameter ([34]; 48 h): 3 mm
intensity of coloration, scale 0 to 4 ([34]; 48 h): 0.25

L-prolyl-9-aminobenzo[a]phenoxazin-5-one [Pro-ABP]
growth diameter ([26]; 24 h): 0.5 mm
color of the colony ([26]; 48 h): R
growth diameter ([26]; 48 h): 1.8 mm
intensity of coloration, scale 0 to 4 ([26]; 48 h): 2
color of the colony ([27]; 24 h): R
growth diameter ([27]; 24 h): 3 mm
intensity of coloration, scale 0 to 4 ([27]; 24 h): 0.25
color of the colony ([27]; 48 h): R
growth diameter ([27]; 48 h): 3 mm
intensity of coloration, scale 0 to 4 ([27]; 48 h): 3
growth diameter ([28]; 24 h): 0.3 mm
color of the colony ([28]; 48 h): R
growth diameter ([28]; 48 h): 1.8 mm
intensity of coloration, scale 0 to 4 ([28]; 48 h): 2
growth diameter ([29]; 24 h): 0.4 mm
growth diameter ([29]; 48 h): 1.8 mm
growth diameter ([30]; 24 h): 0.7 mm
growth diameter ([30]; 48 h): 0.7 mm
growth diameter ([31]; 24 h): 0.5 mm
growth diameter ([31]; 48 h): 2 mm
color of the colony ([32]; 24 h): R
growth diameter ([32]; 24 h): 0.8 mm
intensity of coloration, scale 0 to 4 ([32]; 24 h): 2
color of the colony ([32]; 48 h): R
growth diameter ([32]; 48 h): 2.5 mm
intensity of coloration, scale 0 to 4 ([32]; 48 h): 2
growth diameter ([33]; 24 h): 1.2 mm
growth diameter ([33]; 48 h): 1.8 mm
growth diameter ([34]; 24 h): 2 mm
